Patent US6914045B2, “Glycopeptide antibiotics” (Wyeth Holdings Corporation, priority 2001, dated 2005)

What was measured:
Assay in all cases: in vitro antibacterial evaluation, MIC by broth dilution
Assay type in all cases: cell-based
[1] = test system: Staphylococcus sp.; details: broth dilution, 18 hours at 35° C.
Procedure, shortened: (§1)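 Inoculum 5×10^5 CFU/mL; concentrations 64 to 0.06 μg/mL; MIC defined as lowest inhibitory level. Conducted by broth dilution under NCCLS guidelines.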

[2] = test system: Enterococcus sp.; details: broth dilution, 18 hours at 35° C.
Procedure, shortened: as §1

[3] = test system: Streptococcus sp.; details: broth dilution, 18 hours at 35° C.
Procedure, shortened: as §1

[4] = test system: Escherichia coli; details: 18 hours at 35° C.

In the case of CC(c1ccccc1)C1NC(=O)CNC(=O)C(CO)NC(=O)C(C(O)C2CNC(=N)N2C2OC(CO)C(O)C(O)C2O)NC(=O)C(C(O)C2CNC(=N)N2)NC(=O)C(Cc2ccc(OC3OC(CO)C(OC4OC(CO)C(O)C(O)C4OCc4ccc(OCc5ccccc5)cc4)C(O)C3O)cc2)NC1=O (stereo not drawn) [Example 231b, Cyclo[glycyl-β-methylphenylalanyl-O-[4-O-[2-O-[4-(phenylmethoxy)benzyl]hexopyranosyl]-hexopyranosyl]tyrosyl-3-(2-iminoimidazolidin-4-yl)seryl-3-(3-hexopyranosyl-2-iminoimidazolidin-4-yl)serylseryl]], the “MIC Coagulase Negative Staphylococcus (GC 4547)” value [1] is reported as 4 to 32 µg/mL, the “MIC Coagulase Negative Staphylococcus (GC 4548)” value [1] is reported as 2 to 32 µg/mL and the “MIC Coagulase Negative Staphylococcus (GC 4549)” value [1] is reported as 2 to 16 µg/mL. For the same compound, the “MIC Coagulase Negative Staphylococcus (GC 4551)” value [1] was 8 to 32 µg/mL, the “MIC Coagulase Negative Staphylococcus (GC 6257)” value [1] was 1 to 32 µg/mL and the “MIC Staphylococcus aureus (ATCC 29213)” value [1] was 4 to 64 µg/mL. For the same compound, the “MIC Staphylococcus aureus (GC 1131)” value [1] was 4 to 64 µg/mL, the “MIC Staphylococcus aureus (GC 3051)” value [1] was 4 to 64 µg/mL and the “MIC Staphylococcus aureus (GC 3053)” value [1] was 8 to 64 µg/mL. For the same compound, the “MIC Staphylococcus aureus (GC 4541)” value [1] was 4 to 32 µg/mL, the “MIC Staphylococcus aureus (GC 4542)” value [1] was 4 to 32 µg/mL and the “MIC Staphylococcus aureus (GC 4544)” value [1] was 4 to 64 µg/mL. The “MIC Staphylococcus aureus (GC 4545)” value [1] was 4 to 32 µg/mL, the “MIC Staphylococcus aureus-SMITH (GC 4543)” value [1] was 4 to 64 µg/mL and the “MIC Staphylococcus haemolyticus (GC 4546)” value [1] was 4 to 32 µg/mL. The “MIC Staphylococcus aureus (ATCC 29213)” value ([1]; strain ATCC 29213) was 4 to 64 µg/mL, the “MIC Staphylococcus aureus (GC 1131)” value ([1]; strain GC 1131) was 4 to 64 µg/mL and the “MIC Staphylococcus aureus (GC 3051)” value ([1]; strain GC 3051) was 4 to 64 µg/mL. The “MIC Staphylococcus aureus (GC 3053)” value ([1]; strain GC 3053) was 8 to 64 µg/mL, the “MIC Staphylococcus aureus (GC 4541)” value ([1]; strain GC 4541) was 4 to 32 µg/mL and the “MIC Staphylococcus aureus (GC 4542)” value ([1]; strain GC 4542) was 4 to 32 µg/mL. For the same compound, the “MIC Staphylococcus aureus-SMITH (GC 4543)” value ([1]; strain GC 4543) was 4 to 64 µg/mL, the “MIC Staphylococcus aureus (GC 4544)” value ([1]; strain GC 4544) was 4 to 64 µg/mL and the “MIC Staphylococcus aureus (GC 4545)” value ([1]; strain GC 4545) was 4 to 32 µg/mL. The “MIC Staphylococcus haemolyticus (GC 4546)” value ([1]; strain GC 4546) was 4 to 32 µg/mL, the “MIC Coagulase Negative Staphylococcus (GC 4547)” value ([1]; strain GC 4547) was 4 to 32 µg/mL and the “MIC Coagulase Negative Staphylococcus (GC 4548)” value ([1]; strain GC 4548) was 2 to 32 µg/mL. For the same compound, the “MIC Coagulase Negative Staphylococcus (GC 4549)” value ([1]; strain GC 4549) was 2 to 16 µg/mL, the “MIC Coagulase Negative Staphylococcus (GC 4551)” value ([1]; strain GC 4551) was 8 to 32 µg/mL and the “MIC Coagulase Negative Staphylococcus (GC 6257)” value ([1]; strain GC 6257) was 1 to 32 µg/mL. The “MIC Enterococcus avium (GC 4558)” value [2] was 8 to 64 µg/mL, the “MIC Enterococcus faecalis (ATCC 29212)” value [2] was 8 to 128 µg/mL and the “MIC Enterococcus faecalis (GC 2242)” value [2] was 8 to 64 µg/mL. For the same compound, the “MIC Enterococcus faecalis (GC 2691)” value [2] was 16 to 64 µg/mL, the “MIC Enterococcus faecalis (GC 3059)” value [2] was 16 to 128 µg/mL and the “MIC Enterococcus faecalis (GC 4552)” value [2] was 8 to 128 µg/mL. For the same compound, the “MIC Enterococcus faecalis (GC 4553)” value [2] was 8 to 128 µg/mL, the “MIC Enterococcus faecalis (GC 4554)” value [2] was 16 to 128 µg/mL and the “MIC Enterococcus faecalis (GC 6189)” value [2] was 8 to 64 µg/mL. For the same compound, the “MIC Enterococcus faecium (GC 2243)” value [2] was 8 to 128 µg/mL, the “MIC Enterococcus faecium (GC 4556)” value [2] was 16 to 128 µg/mL and the “MIC Enterococcus faecium (GC 4557)” value [2] was 4 to 16 µg/mL. The “MIC Enterococcus faecalis (ATCC 29212)” value ([2]; inoculum 5×10^5 CFU/mL, strain ATCC 29212) was 8 to 128 µg/mL, the “MIC Enterococcus faecalis (GC 2242)” value ([2]; inoculum 5×10^5 CFU/mL, strain GC 2242) was 8 to 64 µg/mL and the “MIC Enterococcus faecium (GC 2243)” value ([2]; inoculum 5×10^5 CFU/mL, strain GC 2243) was 8 to 128 µg/mL. For the same compound, the “MIC Enterococcus faecalis (GC 2691)” value ([2]; inoculum 5×10^5 CFU/mL, strain GC 2691) was 16 to 64 µg/mL, the “MIC Enterococcus faecalis (GC 3059)” value ([2]; inoculum 5×10^5 CFU/mL, strain GC 3059) was 16 to 128 µg/mL and the “MIC Enterococcus faecalis (GC 4552)” value ([2]; inoculum 5×10^5 CFU/mL, strain GC 4552) was 8 to 128 µg/mL. The “MIC Enterococcus faecalis (GC 4553)” value ([2]; inoculum 5×10^5 CFU/mL, strain GC 4553) was 8 to 128 µg/mL, the “MIC Enterococcus faecalis (GC 4554)” value ([2]; inoculum 5×10^5 CFU/mL, strain GC 4554) was 16 to 128 µg/mL and the “MIC Enterococcus faecium (GC 4556)” value ([2]; inoculum 5×10^5 CFU/mL, strain GC 4556) was 16 to 128 µg/mL. The “MIC Enterococcus faecium (GC 4557)” value ([2]; inoculum 5×10^5 CFU/mL, strain GC 4557) was 4 to 16 µg/mL, the “MIC Enterococcus avium (GC 4558)” value ([2]; inoculum 5×10^5 CFU/mL, strain GC 4558) was 8 to 64 µg/mL and the “MIC Enterococcus faecalis (GC 6189)” value ([2]; inoculum 5×10^5 CFU/mL, strain GC 6189) was 8 to 64 µg/mL. For the same compound, the “MIC Streptococcus agalactiae (GC 4564)” value [3] was 1 to 8 µg/mL, the “MIC Streptococcus pneumoniae (ATCC 6301)” value [3] was 0.25 to 2 µg/mL and the “MIC Streptococcus pneumoniae (GC 1894)” value [3] was less than 0.06 to 2 µg/mL. For the same compound, the “MIC Streptococcus pneumoniae (GC 4565)” value [3] was 0.5 to 8 µg/mL, the “MIC Streptococcus pyogenes (GC 4563)” value [3] was 1 to 8 µg/mL and the “MIC Streptococcus pneumoniae (ATCC 6301)” value ([3]; inoculum 5×10^5 CFU/mL, strain ATCC 6301) was 0.25 to 2 µg/mL. For the same compound, the “MIC Streptococcus pneumoniae (GC 1894)” value ([3]; inoculum 5×10^5 CFU/mL, strain GC 1894) was less than 0.06 to 2 µg/mL, the “MIC Streptococcus pyogenes (GC 4563)” value ([3]; inoculum 5×10^5 CFU/mL, strain GC 4563) was 1 to 8 µg/mL and the “MIC Streptococcus agalactiae (GC 4564)” value ([3]; inoculum 5×10^5 CFU/mL, strain GC 4564) was 1 to 8 µg/mL. For the same compound, the “MIC Streptococcus pneumoniae (GC 4565)” value ([3]; inoculum 5×10^5 CFU/mL, strain GC 4565) was 0.5 to 8 µg/mL, the “MIC Escherichia coli (ATCC 25922)” value [4] was greater than 128 µg/mL and the “MIC Escherichia coli (GC 4559)” value [4] was greater than 128 µg/mL. The “MIC Escherichia coli (GC 4560)” value [4] was 0.25 to 4 µg/mL.
